# Reference: US6548494B1, “Tricyclic inhibitors of poly(ADP-ribose) polymerases” (Agouron Pharmaceuticals, Inc., priority 1999, dated 2003)
# Where “and” joins values, the source holds several entries; their conditions need not be identical. Equal entries are not always repeated. Structures can show the parent of a compound that is named as a salt.
# Molecular target: purified PARP protein (Homo sapiens, UniProt P09874)
# Assay: PARP enzyme inhibition assay
# Assay type: biochemical
# Settings: 20 nM purified PARP (5 nM for tight-binding inhibitors), 500 μM NAD+, 25° C.; several values in one cell = repeat determinations; read-out: Inhibition Constant Ki
# Chain of purified PARP protein (P09874 whole entry): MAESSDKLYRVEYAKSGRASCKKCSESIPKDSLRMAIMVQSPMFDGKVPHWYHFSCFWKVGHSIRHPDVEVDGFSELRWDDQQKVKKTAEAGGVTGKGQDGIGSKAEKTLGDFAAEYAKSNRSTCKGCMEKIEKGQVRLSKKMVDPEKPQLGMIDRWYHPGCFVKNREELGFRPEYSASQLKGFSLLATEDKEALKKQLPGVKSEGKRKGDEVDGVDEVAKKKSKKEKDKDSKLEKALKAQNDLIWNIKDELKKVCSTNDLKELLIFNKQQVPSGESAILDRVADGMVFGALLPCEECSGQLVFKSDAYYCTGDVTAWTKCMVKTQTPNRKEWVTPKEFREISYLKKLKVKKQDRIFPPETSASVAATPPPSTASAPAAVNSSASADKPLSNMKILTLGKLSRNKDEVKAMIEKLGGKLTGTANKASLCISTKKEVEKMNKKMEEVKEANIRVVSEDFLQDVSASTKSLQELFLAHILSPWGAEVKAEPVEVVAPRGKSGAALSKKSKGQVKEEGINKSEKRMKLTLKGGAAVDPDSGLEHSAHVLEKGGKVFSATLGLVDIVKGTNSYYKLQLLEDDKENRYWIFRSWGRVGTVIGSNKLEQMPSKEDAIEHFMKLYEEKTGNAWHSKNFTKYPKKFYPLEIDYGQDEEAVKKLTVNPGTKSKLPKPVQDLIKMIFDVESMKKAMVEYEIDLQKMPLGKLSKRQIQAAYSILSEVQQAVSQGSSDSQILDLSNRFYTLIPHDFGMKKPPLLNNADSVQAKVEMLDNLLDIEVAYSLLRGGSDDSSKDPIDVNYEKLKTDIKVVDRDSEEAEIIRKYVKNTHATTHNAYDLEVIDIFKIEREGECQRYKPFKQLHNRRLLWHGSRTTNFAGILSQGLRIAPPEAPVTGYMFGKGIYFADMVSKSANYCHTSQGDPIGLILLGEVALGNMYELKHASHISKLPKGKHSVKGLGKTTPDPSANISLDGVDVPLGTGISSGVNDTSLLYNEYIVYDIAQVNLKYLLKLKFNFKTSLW
row,Structure (SMILES),Ki
1,"COc1ccc(C2CNC(=O)c3cccc4[nH]c(=O)n2c34)cc1 (racemic) [Example 53, (RS)-(±)-9-(4-Methoxy-phenyl)-8,9-dihydro-2H,7H-2,7,9a-triaza-benzo[cd]azulene-1,6-dione]",1800 nM
2,"COc1ccc(C2CNC(=O)c3cccc4nc(-c5ccc(Cl)cc5)n2c34)cc1 (racemic) [Example 54, (RS)-(±)-1-(4-Chloro-phenyl)-9-(4-methoxy-phenyl)-8,9-dihydro-7H-2,7,9a-triaza-benzo[cd]azulen-6-one]",600 nM
3,"O=C1NCCn2c(-c3ccco3)nc3cccc1c32 [Example 20, 1-Furan-2-yl-8,9-dihydro-7H-2,7,9a-triaza-benzo[cd]azulen-6-one]",11.9 nM
4,"O=C1NCCn2c(Cc3ccccc3)nc3cccc1c32 [Example 21, 1-Benzyl-8,9-dihydro-7H-2,7,9a-triaza-benzo[cd]azulen-6-one]",13.7 nM and 13 nM
5,"O=C1NCCn2c(C3CCCCC3)nc3cccc1c32 [Example 24, 1-Cyclohexyl-8,9-dihydro-7H-2,7,9a-triaza-benzo[cd]azulen-6-one]",29 nM
6,"O=C1NCCn2c(S)nc3cccc1c32 [Example 28, 1-Mercapto-8,9-dihydro-7H-2,7,9a-triaza-benzo[cd]azulen-6-one]",10 nM
7,"O=C1NCCn2c(-c3ccccc3)cc3cccc1c32 [Example 33, 6-Phenyl-3,4-dihydro-2H-[1,4]diazepino[6,7,1-hi]indol-1-one]",14.3 nM
8,"O=Cc1c(-c2ccc(Cl)cc2)n2c3c(cccc13)C(=O)NCC2 [Example 38, 6-(4-Chloro-phenyl)-1-oxo-1,2,3,4-tetrahydro-[1,4]diazepino[6,7,1-hi]indole-7-carboxaldehyde]",43 nM
9,"O=C1NCCN2CCc3cccc1c32 [Example 41, 3,4,6,7-Tetrahydro-2H-[1,4]diazepino[6,7,1-hi]indol-1-one, reference compound]",54 nM and 60 nM
10,COC(=O)c1cn2c3c(cccc13)C(=O)NCC2 [Example 44],900 nM
11,"O=Cc1cn2c3c(cccc13)C(=O)NCC2 [Example 45, 1-Oxo-1,2,3,4-tetrahydro-[1,4]diazepino[6,7,1-hi]indole-7-carbaldehyde]",167 nM and 185 nM
12,"Cc1cn2c3c(cccc13)C(=O)NCC2 [Example 49, 7-Methyl-3,4-dihydro-2H-[1,4]diazepino[6,7,1-hi]indol-1-one]",122 nM
13,"Cc1c(-c2cccc(C(F)(F)F)c2)n2c3c(cccc13)C(=O)NCC2 [Example 52, 6-(3-Trifluoromethyl-phenyl)-7-methyl-3,4-dihydro-2H-[1,4]diazepino[6,7,1-hi]indol-1-one]",79 nM
14,"O=C1NCCn2c(-c3ccc(CO)cc3)nc3cccc1c32 [Example 58a, 1-(4-hydroxymethyl-phenyl)-8,9-dihydro-7H-2,7,9a-triaza-benzo[cd]azulen-6-one]",4.2 nM
15,"O=C1NCCn2c(-c3ccc(-c4ccc(Cl)cc4)o3)nc3cccc1c32 [Example 96, 1-[5-(4-Chlorophenyl)-furan-2-yl]-8,9-dihydro-7H-2,7,9a-triaza-benzo[cd]azulen-6-one]",10 nM
16,"CN(C)CCCOc1ccc(-c2nc3cccc4c3n2CCNC4=O)cc1 [Example 121, 1-[4-(3-Dimethylamino-propoxy)-phenyl]-8,9-dihydro-7H-2,7,9a-triaza-benzo[cd]azulen-6-one]",4 nM
17,C[N+](C)([O-])Cc1ccc(-c2nc3cccc4c3n2CCNC4=O)cc1 [Example 131],22 nM
18,"CC(C)(C)OC(=O)N1CCCC(c2ccc(-c3nc4cccc5c4n3CCNC5=O)cc2)C1 (stereo not shown) [Example 143, 3-[4-(6-oxo-6,7,8,9-Tetrahydro-2,7,9a-triaza-benzo[cd]azulen-1-yl)-phenyl]-piperidine-1-carboxylic Acid t-Butyl Ester]",22 nM
19,"Nc1nc2cccc3c2n1CCNC3=O [Example 146, 1-Amino-8,9-dihydro-7H-2,7,9a-triaza-benzo[cd]azulen-6-one Hydrochloride]",35 nM
